Data on 17 sequences can be found in patent publication US20060079453A1, “Hla binding peptides and their uses” (priority 2002, published 2006).

Like-named read-outs stand apart in the source and are kept apart here. No end group written: not given here. A value given as a limit tells only on which side of the number the result lay.

Targets include HLA-DR DRB1*0301 (DR3) (Homo sapiens, UniProt P01903+P01911, A100K/A102G/A103R/A169T/F55Y/I96L/K41T/L162R/M171V/P40S/Q125H/Q178H/Q39Y/R42S/S66N/T106N/T262R/W38E/Y61H); HLA-DR DRB1*0802 (DR8) (Homo sapiens, UniProt P01903+P01911, A100R/A103L/A169T/F76Y/H45Y/I96F/K41T/L162R/M171V/P40S/Q125H/Q178H/Q39Y/Q99D/R218S/R42G/S66Y/V115G/W38E); HLA-DR DRB1*1101 (DR11) (Homo sapiens, UniProt P01903+P01911, A100R/A169T/A87E/I96F/K41T/L162R/M171V/P40S/Q125H/Q178H/Q39Y/Q99D/R42S/S66Y/T262R/V115G/W38E); HLA-DR DRB1*1302 (DR13) (Homo sapiens, UniProt P01903+P01911, A100E/A169T/K41T/L162R/M171V/P40S/Q125H/Q178H/Q39Y/Q99D/R42S/S66N/T262R/V115G/W38E/Y61H); HLA-DR DRB1*1501 (DR15) (Homo sapiens, UniProt P01903+P01911); HLA-DR DRB4*0101 (DR53) (Homo sapiens, UniProt P01903+P13762, G164S); HLA-DR DRB5*0101 (DR51) (Homo sapiens, UniProt P01903+Q30154); HLA-DR DRB3*0101 (DR52) (Homo sapiens, UniProt P01903+P79483).

Assay in all cases: biochemical
What all share (type): binding

In the next experiment the target is HLA-DR DRB1*0401 (DR4) (Homo sapiens, UniProt P01903+P01911, A100K/A169T/F76Y/I96L/K127E/L162R/M171V/N62H/P40V/Q125Y/R42H/S133A/S149N/S66Y/V115G/V209L/W38E). The following applies: DRB1 *0401.
For a further experiment, the target named is HLA-DR DRB1*0701 (DR7) (Homo sapiens, UniProt P01903+P01911, A100R/A102G/A103Q/D57E/D86V/E43K/F76Y/K127E/L162R/M171V/P40G/Q125H/Q99D/R33Q/R42Y/R54Q/S133A/S66F/T210M/V115G/Y107V/Y59L/Y89S). The following applies: DRB1 *0701.
The target of another experiment is HLA-DR DRB1*0901 (DR9) (Homo sapiens, UniProt P01903+P01911, A100R/A103E/D57H/D86V/F55Y/F60I/F76Y/I96F/K127E/L162R/M171V/P40D/Q125H/Q99R/R33Q/R42F/S133A/S66N/T210M/V115G/W38K/Y107V/Y59G/Y89S). The following applies: DRB1 *0901.
A further experiment concerns the target HLA-DR DRB1*0101 (DR1) (Homo sapiens, UniProt P01903+P01911, A100R/D57E/F55L/F60I/F76Y/I96L/L162R/M171V/P40L/Q125E/R42F/V115G/Y59C). The following applies: DRB1 *0101.

Chain of HLA-DR DRB1*1101 (DR11) (P01903 26-254 limits assumed, other chains not shown): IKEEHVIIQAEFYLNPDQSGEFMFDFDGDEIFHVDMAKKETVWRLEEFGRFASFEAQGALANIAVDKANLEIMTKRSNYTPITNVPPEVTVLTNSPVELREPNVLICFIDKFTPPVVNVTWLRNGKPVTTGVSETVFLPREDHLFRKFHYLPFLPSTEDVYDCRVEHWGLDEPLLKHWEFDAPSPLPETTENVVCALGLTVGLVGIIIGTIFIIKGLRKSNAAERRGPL
Chain of HLA-DR DRB1*1302 (DR13) (P01903 26-254 limits assumed, other chains not shown): as above
Chain of HLA-DR DRB1*0301 (DR3) (P01903 26-254 limits assumed, other chains not shown): as above

Take LMAFTAAVTS: the IC50 was greater than 74000 nM at HLA-DR DRB1*0301 (DR3); 321 nM at HLA-DR DRB1*0401 (DR4); 240 nM against HLA-DR DRB1*0701 (DR7); greater than 40600 nM on HLA-DR DRB1*0802 (DR8); 160 nM on HLA-DR DRB1*0901 (DR9); greater than 23300 nM on HLA-DR DRB1*1101 (DR11) (DRB1 *1101). The IC50 was greater than 2460 nM against HLA-DR DRB1*1302 (DR13) (DRBI *1302), 1930 nM against HLA-DR DRB1*1501 (DR15) (DRBI *1501), 11700 nM on HLA-DR DRB4*0101 (DR53) (DRB4 *0101) and greater than 12600 nM against HLA-DR DRB5*0101 (DR51) (DRB5 *0101).

Regarding HSLFHPEDTGQVFQV, the IC50 at HLA-DR DRB3*0101 (DR52) (read-out: DRB3 *0101) is 553 nM.

FVNQHLTGSHLVEAL: the IC50 on HLA-DR DRB1*1101 (DR11) (read-out: DRB1 *1101) is greater than 10500 nM; on HLA-DR DRB1*1501 (DR15) (read-out: DRBI *1501), 799 nM; on HLA-DR DRB3*0101 (DR52) (read-out: DRB3 *0101), 94500 nM; on HLA-DR DRB5*0101 (DR51) (read-out: DRB5 *0101) it was greater than 43300 nM.

With SAAPLRTITADTFRK [SAAPLRT1TADTFRK], the IC50 against HLA-DR DRB1*1101 (DR11) (DRB1 *1101) amounted to 3880 nM; against HLA-DR DRB1*1302 (DR13) (DRBI *1302), 809 nM; at HLA-DR DRB1*1501 (DR15) (DRBI *1501), 858 nM; on HLA-DR DRB3*0101 (DR52) it was 2110 nM; at HLA-DR DRB4*0101 (DR53) (DRB4 *0101) it was 17 nM; on HLA-DR DRB5*0101 (DR51) (DRB5 *0101) it was 45 nM.

Consider YKTIAYDEEARR, for which the IC50 is greater than 50000 nM at HLA-DR DRB3*0101 (DR52) and no less than 200000 nM on HLA-DR DRB5*0101 (DR51) (DRB5 *0101).

With ALQAQKEAISPPDAA, the IC50 on HLA-DR DRB3*0101 (DR52) (read-out: DRB3 *0101) was greater than 91700 nM.

For the sequence MTNLAALFPPEGVSI, the IC50 was 141000 nM at HLA-DR DRB1*1101 (DR11) (read-out: DRB1 *1101), greater than 8830 nM on HLA-DR DRB3*0101 (DR52) (read-out: DRB3 *0101), 4610 nM on HLA-DR DRB4*0101 (DR53) (read-out: DRB4 *0101) and 141000 nM at HLA-DR DRB5*0101 (DR51) (read-out: DRB5 *0101).

On to RLFDNAMLRAHRLHQ, for which the IC50 at HLA-DR DRB1*1302 (DR13) (read-out: DRBI *1302) was 738 nM; on HLA-DR DRB1*1501 (DR15) (read-out: DRBI *1501), 18 nM; on HLA-DR DRB3*0101 (DR52) (read-out: DRB3 *0101), greater than 270000 nM; on HLA-DR DRB4*0101 (DR53) (read-out: DRB4 *0101), 1630 nM; on HLA-DR DRB5*0101 (DR51) (read-out: DRB5 *0101), 58 nM.

In the case of DKAVSGLRSLTTLLR, the IC50 against HLA-DR DRB1*0101 (DR1) is 13 nM; at HLA-DR DRB1*0301 (DR3), 4330 nM; on HLA-DR DRB1*0401 (DR4), 1010 nM; at HLA-DR DRB1*0802 (DR8), 16400 nM; on HLA-DR DRB1*0901 (DR9), greater than 78900 nM; at HLA-DR DRB1*1101 (DR11) (DRB1 *1101), 52 nM. Moreover, the IC50 at HLA-DR DRB1*1302 (DR13) (DRBI *1302) turned out to be 187 nM; against HLA-DR DRB1*1501 (DR15) (DRBI *1501) it was 60 nM; against HLA-DR DRB4*0101 (DR53) (DRB4 *0101), 2010 nM; on HLA-DR DRB5*0101 (DR51) (DRB5 *0101) it was 104 nM.

Turning to KPAVYTKVVHYRKWI, the IC50 was 401 nM at HLA-DR DRB1*1501 (DR15) (read-out: DRBI *1501), 7190 nM on HLA-DR DRB3*0101 (DR52) (read-out: DRB3 *0101) and 23 nM on HLA-DR DRB5*0101 (DR51) (read-out: DRB5 *0101).

Turning to FPTIPLSRLFDNAML, the IC50 on HLA-DR DRB1*1101 (DR11) (read-out: DRB1 *1101) amounted to 46400 nM; on HLA-DR DRB1*1302 (DR13) (read-out: DRBI *1302) it was 9310 nM; at HLA-DR DRB1*1501 (DR15) (read-out: DRBI *1501), 2770 nM; on HLA-DR DRB3*0101 (DR52) (read-out: DRB3 *0101), 121000 nM.

With MSAMTALAALFPPEG, the IC50 on HLA-DR DRB1*1101 (DR11) (read-out: DRB1 *1101) is greater than 200000 nM; at HLA-DR DRB3*0101 (DR52) (read-out: DRB3 *0101), 7160 nM; at HLA-DR DRB5*0101 (DR51) (read-out: DRB5 *0101), 63200 nM.

In the case of SHDLMLLRLSEPAKI, the IC50 worked out at 1.8 nM on HLA-DR DRB1*1302 (DR13) (read-out: DRBI *1302), 5360 nM on HLA-DR DRB3*0101 (DR52) (read-out: DRB3 *0101), 10 nM at HLA-DR DRB4*0101 (DR53) (read-out: DRB4 *0101) and 2030 nM at HLA-DR DRB5*0101 (DR51) (read-out: DRB5 *0101).

With AWYAWRNRCK, the IC50 on HLA-DR DRB1*1101 (DR11) (read-out: DRB1 *1101) was greater than 5000 nM; on HLA-DR DRB3*0101 (DR52) (read-out: DRB3 *0101), greater than 11100 nM; on HLA-DR DRB5*0101 (DR51) (read-out: DRB5 *0101), 44 nM.

With YLVTGERGFFYTKPT, the IC50 on HLA-DR DRB1*1501 (DR15) (read-out: DRBI *1501) is greater than 21000 nM; on HLA-DR DRB3*0101 (DR52) (read-out: DRB3 *0101) it was 9570 nM; at HLA-DR DRB4*0101 (DR53) (read-out: DRB4 *0101) it was 27900 nM.

Consider IFAIFRQDSSSTGWN, for which the IC50 against HLA-DR DRB1*0301 (DR3) stood at 402 nM; on HLA-DR DRB1*0401 (DR4) it was 9.6 nM; against HLA-DR DRB1*0802 (DR8), 4720 nM; at HLA-DR DRB1*0901 (DR9), 970 nM; at HLA-DR DRB1*1101 (DR11) (DRB1 *1101) it was 4560 nM; against HLA-DR DRB1*1302 (DR13) (DRBI *1302), 775 nM. Further, the results for the IC50 against HLA-DR DRB1*1501 (DR15) (DRBI *1501), against HLA-DR DRB4*0101 (DR53) (DRB4 *0101) and on HLA-DR DRB5*0101 (DR51) (DRB5 *0101) were 204 nM, 30 nM and 109000 nM, respectively.

As for DDYVKQYTKQYTKQNTLKK, the IC50 against HLA-DR DRB1*0401 (DR4) is 160 nM; at HLA-DR DRB1*1101 (DR11) (DRB1 *1101), greater than 1110 nM; at HLA-DR DRB3*0101 (DR52) it was greater than 11100 nM; on HLA-DR DRB5*0101 (DR51) (DRB5 *0101), 35 nM.
